According to patent US20030162759A1, “Aldosterone blocker therapy to prevent or treat inflammation-related disorders” (priority 2000, published 2003):
“And” between values parts separate entries of the source, which are not always exact repeats. Equal entries are not always repeated. “Also recorded” adds a separate entry of the source.

Tests used:
Assay type in all cases: in vivo, rat
aldosterone infused rats = test: Assay B aldosterone infusion model: systolic blood pressure by radio-telemetry; details: saline-drinking, uni-nephrectomized Sprague Dawley rats, eplerenone 100 mpk p.o.
Description: Assay B: In vivo Aldosterone Infusion Model Male Sprague Dawley rats (n=39; BW=250 g) […] Uni-nephrectomy performed during implantation of mini-pumps 2. Aldosterone ([…], sc via aizet minipump) 2. […] 1. […] SBP measured by radio-telemetry probes inserted in the abdominal aorta Sacrifice after 4 weeks.

cyclooxygenase-2 (COX-2) = test: Assay C: COX-2 relative mRNA expression in heart (TaqMan); details: for COX-2, Mean / COX-2: mRNA; for COX-2, Mean: group mean; for COX-2: individual rats; for COX-2 mRNA expression in myocardium: time course 7, 14, 30 days, eplerenone 100 mg/kg/day
Description: (§1) The procedure of Assay B was expanded upon in a further study. […] Myocardial tissue from animals in each treatment group was examined after 7, 14, or 30 days of treatment.
(§2) Potassium chloride supplementation was added to the saline solution in order to prevent the potential hypokalemia associated with aldosterone excess.
(§3) At the time of the surgery, an Alzet 2002 osmotic minipump (Alza Corp., Palo Alto, Calif.) containing either vehicle (9% ethanol/87% propylene glycol/4% dH2O) or 1.0 mg/mL d-aldosterone (Sigma Chemical, St. Louis, Mo.) was inserted subcutaneously at the nape of the neck. Aldosterone was administered at a dose of 0.75 g/hour. […] Animals were sacrificed from each group (n=8-13) after 7, 14, or 30 days of treatment.
(§4) The fluorogenic 5′-nuclease assay (TaqMan PCR) using Applied Biosystems' 7700 Sequence Detection System (Applied Biosystems, Foster City, Calif.) allowed for real time detection/quantitation of a specific gene by monitoring the increase in fluorescence of a gene-specific, dye-labeled oligonucleotide probe. Probes for target and reference genes were labeled at the 5′-end with a 6-carboxyfluorescein (6FAM) reporter dye and at the 3′-end with a 6-carboxy-N,N,N′,N′-tetramethylrhodamine (TAMRA) quencher dye. When the probe was annealed to the target gene, fluorescence of 6FAM was prevented by the close proximity of TAMRA. The exonuclease activity of Taq polymerase released the dyes from the oligonucleotide probe by displacing the probe from the target sequence resulting in fluorescence excitation in direct proportion to the amount of target message present. Data analysis was performed using the Sequence Detection System software from Applied Biosystems.
(§5) All primers and probes were designed using Primer Express software supplied with the 7700 Sequence Detection System and synthesized by Applied Biosystems. Standard curves using 5-fold dilutions of total RNA (from 200 ng to 320 pg) were performed to determine the efficiency of each primer/probe set in the TaqMan reaction prior to the analysis of the experimental samples. Primer/probe sets were designed from known sequences of rat genes to be analyzed. All target gene values were normalized to a reference gene, constitutively expressed cyclophilin. Primer/probe set sequences can be found in Table 8.
(§6) RNA was extracted from frozen (−80° C.) rat heart tissue using the Totally RNA Isolation Kit (Ambion, Inc., Austin, Tex.). Tissue was crushed using a stainless steel mortar and pestle, which had been chilled to −80° C. and transferred to a dounce homogenizer (Kontes, Vineland, N.J.) containing 3-10 mL cold denaturation buffer. Tissue was homogenized and transferred to a sterile, 15 mL polypropylene centrifuge tube. An equal volume of phenol:chloroform:isoamyl alcohol (25:24:1) was added, samples were shaken vigorously for 1 min, and incubated on ice for at least 15 min. Samples were centrifuged for 30 min at 10,000 g. The aqueous phase was removed, 1/10 volume of a sodium acetate solution (3.0 M NaOAc pH 4.5) was added, samples were shaken or inverted for 10 seconds, and acid-phenol (premixed with isoamyl alcohol):chloroform (5:1, Ambion, Inc.) was added at an volume equivalent to the starting sample volume. Samples were shaken vigorously for 1 min, followed by a 15-min incubation on ice, and centrifuged for 30 min at 10,000 g. The aqueous phase removed and placed in a clean polypropylene tube. An equal volume of isopropanol (Sigma, St. Louis, Mo.) was added and the samples were mixed and incubated overnight at −20° C. The samples were centrifuged for 30 min at 10,000 g, the supernatant was removed and the RNA pellet was resuspended in DNAse/RNAse-free water. Samples were frozen at −80° C. for at least 2 hours, thawed on wet ice, and diluted for quantitation.

[1] = system: Monocyte Chemoattractant Protein-1 (MCP-1); test: Assay C: MCP-1 relative mRNA expression in heart (TaqMan); details: for MCP1, Mean / MCP1: mRNA; for MCP1, Mean: group mean; for MCP1: individual rats; for MCP-1 mRNA expression in myocardium: time course 7, 14, 30 days, eplerenone 100 mg/kg/day
Description: as §1, §2, §3, §4, §5, §6

osteopontin = test: Assay A angiotensin II infusion model: osteopontin immunostaining of hearts; details: angiotensin II infused, saline-drinking rats; eplerenone 100 mpk
Description: Male Wistar rats (n—50, 10/group; BW=200 g)
2. Angiotensin 11 (25 ng/min, sc via aizet minipump)
Osteopontin (also known as early T-cell activation-1, Eta-1) is a secreted glycoprotein with pro-inflammatory characteristics that mediates chemoattraction, activation and migration of monocytes.

[2] = 7 days of treatment, listed as Eplerenone + aldosterone + salt
[3] = 14 days of treatment, listed as Eplerenone + aldosterone + salt
[4] = 30 days of treatment, listed as Eplerenone + aldosterone + salt
[5] = 7 days of treatment, listed as Aldosterone + salt
[6] = 14 days of treatment, listed as Aldosterone + salt
[7] = 30 days of treatment, listed as Aldosterone + salt

COC(=O)[C@@H]1CC2=CC(=O)CC[C@]2(C)[C@@]23O[C@@H]2C[C@@]2(C)[C@@H](CC[C@@]24CCC(=O)O4)[C@H]13 [eplerenone, Pregn-4-ene-7,21-dicarboxylic acid, 9,11-epoxy-17-hydroxy-3-oxo-, γ-lactone, methyl ester, (7α, 11α, 17β) -]
Systolic Blood Pressure (aldosterone infused rats): significantly reduced, but did not normalize blood pressure; also recorded: depression of this elevation
COX-2, Mean (cyclooxygenase-2 (COX-2); 7 days of treatment): 1.25 AU
COX-2, Mean (cyclooxygenase-2 (COX-2); 14 days of treatment): 2.02 AU
COX-2, Mean (cyclooxygenase-2 (COX-2); 30 days of treatment): 2.28 AU
COX-2 (cyclooxygenase-2 (COX-2); [2]): 1.19 AU and 0.60 AU (2×) and 0.82 AU and 0.91 AU
COX-2 (cyclooxygenase-2 (COX-2); [3]): 0.70 AU and 0.99 AU and 0.86 AU
COX-2 (cyclooxygenase-2 (COX-2); [4]): 0.55 AU and 1.34 AU
COX-2 mRNA expression in myocardium (cyclooxygenase-2 (COX-2)): inhibition of early time-course expression of myocardial COX-2; also recorded: significantly reduced
MCP1, Mean ([1]; 7 days of treatment): 1.56 AU
MCP1, Mean ([1]; 30 days of treatment): 2.29 AU
MCP1 [1, 2]: 1.60 AU and 0.85 AU and 0.83 AU and 0.67 AU
MCP1 [1, 3]: 1.60 AU and 1.20 AU
MCP1 [1, 4]: 1.70 AU and 2.10 AU
MCP-1 mRNA expression in myocardium [1]: significantly reduced; also recorded: inhibition of early time-course expression of myocardial MCP-1
Osteopontin expression in the heart (immunostaining) (osteopontin): prevented osteopontin expression

C[C@]12CCC(=O)C=C1CC[C@@H]1[C@@H]2[C@@H](O)C[C@]2(C=O)[C@@H](C(=O)CO)CC[C@@H]12 [aldosterone]
Systolic Blood Pressure (aldosterone infused rats): Systolic blood pressure increased
COX-2, Mean (cyclooxygenase-2 (COX-2); 14 days of treatment): 4.34 AU
COX-2, Mean (cyclooxygenase-2 (COX-2); 30 days of treatment): 4.53 AU
COX-2 (cyclooxygenase-2 (COX-2); [5]): 2.10 AU and 0.70 AU and 0.82 AU
COX-2 (cyclooxygenase-2 (COX-2); [6]): 5.80 AU and 4.18 AU
COX-2 (cyclooxygenase-2 (COX-2); [7]): 3.10 AU and 8.20 AU
COX-2 mRNA expression in myocardium (cyclooxygenase-2 (COX-2)): significantly increased
MCP1, Mean ([1]; 14 days of treatment): 2.76 AU
MCP1, Mean ([1]; 30 days of treatment): 4.54 AU
MCP1 [1, 5]: 2.40 AU
MCP1 [1, 6]: 2.50 AU
MCP1 [1, 7]: 2.30 AU
MCP-1 mRNA expression in myocardium [1]: significantly increased
Osteopontin expression in the heart (immunostaining) (osteopontin): restored osteopontin expression
